System: KRAS PDC multicell spheroid viability
Assay: Anticancer human tumor 825966-067-R-J1-PDC patient-derived colon carcinoma cell line growth inhibition [KRAS2]
Conditions: for viability, T/C: stronger effect = lower value
Source text: Multicellular complex tumor spheroid response to RAS pathway inhibitors in combination with a targeted agents in patient-derived cell lines with oncogenic KRAS variants from multiple cancer types
A high-throughput screen of multi-cell type tumor spheroids was designed to identify active combinations of targeted small molecules and KRAS pathway inhibitors. Complex spheroids include a stromal component modeled by human endothelial cells (HUVEC) and fibroblasts modeled by human mesenchymal stem cells (MSCs). The concentration ranges selected for each drug and investigational agent were based upon clinically achievable concentrations if the clinical Cmax of the agent was known.
Compounds. The drugs and investigational agents: BI-3406 (NSC825286), BAY-293 (NSC824723), batoprotafib (TNO155; NSC825523), sotorasib (AMG 510; NSC818433), MRTX1257 (NSC819558), elimusertib (BAY 1895344; NSC800525), molibresib (GSK525762; NSC774829), temuterkib (LY3214996; NSC803410), venetoclax (NSC766270), alisertib (NSC759677), olaparib (NSC753686), talazoparib (NSC767125), erdafitinib (NSC781556), ipatasertib (NSC767898), cabozantinib (NSC761068), nintedanib (NSC756659), abemaciclib (NSC768073), docetaxel (NSC628503), trametinib (NSC758246), and sapanisertib (NSC764658) were obtained from the National Cancer Institute (NCI) Developmental Therapeutics Program Chemical Repository. The FDA-approved anticancer drug set is available from the Developmental Therapeutics Program. […] The stock solutions were prepared in dimethyl sulfoxide (DMSO, Sigma-Aldrich, St. Louis, MO, cat. D2650) at 800-fold the tested concentration and stored at -70 degrees C prior to their use. All drugs and investigational agents were tested over a range starting from a high concentration at or near the clinical Cmax and decreasing in half-log increments. If the clinical Cmax for an agent had not been determined, the highest concentration tested was 10 microM.
Cell Culture. All cells were maintained in an incubator at 37 degrees C and 5% CO2 with 95% humidity. The PDC lines were cultured according to standard operating procedures established by the NCI PDMR (https://pdmr.cancer.gov/sops/default.htm). Briefly, all PDCs were thawed and cultured in Matrigel-coated flasks prepared with a working solution of 1X Ham's F-12 nutrient mix, without supplementation (Invitrogen, Waltham, MA, cat. 11765054), 100 U/mL penicillin-streptomycin (Invitrogen, cat. 15140122), and 2.5% Matrigel (Corning Inc., Corning, NY, cat. 354248) for the first three passages. All PDCs were cultured in complete DMEM/F-12 media containing advanced DMEM/F-12 (Invitrogen, cat. 12634028), 4.9% defined fetal bovine serum, heat inactivated (HyClone Laboratories Inc., Logan, UT, cat. SH30070.03HI), 389 ng/mL hydrocortisone (Sigma-Aldrich, cat. H4001), 9.7 ng/mL human EGF recombinant protein (Invitrogen, cat. PHG0313), 23.4 microg/mL adenine (Sigma-Aldrich, cat. A2786), 97.3 U/mL penicillin-streptomycin (Invitrogen, cat. 15140122), 1.9 mM L-glutamine (Invitrogen, cat. 25030081), and 9.7 microM Y-27632 dihydrochloride (Tocris Bioscience, Bristol, United Kingdom, cat. 1254). The PDCs were cultured in complete DMEM/F12 media without 9.7 microM Y-27632 dihydrochloride for at least two passages prior to the screen. The established cell line HOP-62 was cultured in RPMI 1640 medium, HEPES (Invitrogen, cat. 22400105) with 10% defined fetal bovine serum (HyClone Laboratories Inc., cat. SH30070.03) and 2 mM L-glutamine (Invitrogen, cat. 25030081). The pooled donor HUVEC were cultured in endothelial cell growth medium 2 (PromoCell, Heidelberg, Germany, cat. C-22011) and the hMSC were cultured in mesenchymal stem cell growth medium 2 (PromoCell, cat. C-28009). For all experiments, HUVEC and hMSC were used at passages </=5, while the malignant cell lines were used at passages </=15. […]

[1] = curve of first compound, second compound 0.1 µM
[2] = curve of first compound, second compound 0.316 µM
[3] = curve of first compound, second compound 1 µM
[4] = curve of first compound, second compound 3.16 µM
[5] = curve of first compound, second compound 10 µM
[6] = second compound 0.1 µM, first compound 0.0316 µM
[7] = second compound 0.1 µM, first compound 0.1 µM
[8] = second compound 0.1 µM, first compound 0.316 µM
[9] = second compound 0.1 µM, first compound 1 µM
[10] = second compound 0.1 µM, first compound 3.16 µM
[11] = second compound 0.1 µM, first compound 10 µM
[12] = second compound 0.316 µM, first compound 0.0316 µM
[13] = second compound 0.316 µM, first compound 0.1 µM
[14] = second compound 0.316 µM, first compound 0.316 µM
[15] = second compound 0.316 µM, first compound 1 µM
[16] = second compound 0.316 µM, first compound 3.16 µM
[17] = second compound 0.316 µM, first compound 10 µM
[18] = second compound 1 µM, first compound 0.0316 µM
[19] = second compound 1 µM, first compound 0.1 µM
[20] = second compound 1 µM, first compound 0.316 µM
[21] = second compound 1 µM, first compound 1 µM
[22] = second compound 1 µM, first compound 3.16 µM
[23] = second compound 1 µM, first compound 10 µM
[24] = second compound 3.16 µM, first compound 0.0316 µM
[25] = second compound 3.16 µM, first compound 0.1 µM
[26] = second compound 3.16 µM, first compound 0.316 µM
[27] = second compound 3.16 µM, first compound 1 µM
[28] = second compound 3.16 µM, first compound 3.16 µM
[29] = second compound 3.16 µM, first compound 10 µM
[30] = second compound 10 µM, first compound 0.0316 µM
[31] = second compound 10 µM, first compound 0.1 µM
[32] = second compound 10 µM, first compound 0.316 µM
[33] = second compound 10 µM, first compound 1 µM
[34] = second compound 10 µM, first compound 3.16 µM
[35] = second compound 10 µM, first compound 10 µM
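Note: spheroids exposed to compounds for 7 days.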
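Throughout, for viability, T/C: 100% = DMSO vehicle control viability.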

Structure (SMILES)	IC50 [1] [µM]	IC50 [2] [µM]	IC50 [3] [µM]	IC50 [4] [µM]	IC50 [5] [µM]	viability, T/C [6] [%]	viability, T/C [7] [%]	viability, T/C [8] [%]	viability, T/C [9] [%]	viability, T/C [10] [%]	viability, T/C [12] [%]	viability, T/C [13] [%]	viability, T/C [14] [%]	viability, T/C [15] [%]	viability, T/C [16] [%]	viability, T/C [18] [%]	viability, T/C [19] [%]	viability, T/C [20] [%]	viability, T/C [21] [%]	viability, T/C [22] [%]	also measured
COc1cc2nccc(Oc3ccc(NC(=O)C4(C(=O)Nc5ccc(F)cc5)CC4)cc3)c2cc1OC + CC1OCC2(CCN(c3cnc(Sc4ccnc(N)c4Cl)c(N)n3)CC2)C1N	1.61	1.71	1.69	1.61	< 0.0316	89.8	105	94.7	79.9	7.16	97	102	85.8	87.1	5.92	109	98.1	78.6	85.7	7.28	viability, T/C [11]: 8.74%; viability, T/C [17]: 10%; viability, T/C [23]: 5.65%; viability, T/C [24]: 83.5%; viability, T/C [25]: 87%; viability, T/C [26]: 90.3%; viability, T/C [27]: 81.6%; viability, T/C [28]: 4.94%; viability, T/C [29]: 4.14%; viability, T/C [30]: 45.5%; viability, T/C [31]: 48.5%; viability, T/C [32]: 43.4%; viability, T/C [33]: 23.1%; viability, T/C [34]: 1.1%; viability, T/C [35]: 0.8%
CC1COCCN1c1cc(-c2ccnn2C)c2ccnc(-c3ccn[nH]3)c2n1 (centres undefined) + COc1cc2nc(C)nc(NC(C)c3cc(N)cc(C(F)(F)F)c3)c2cc1OC1CCOC1	> 3.16	> 3.16	0.152	0.0692	0.0123	122	67.6	55	55.8	40.1	112	58.3	58.1	52.7	38.8	80.4	61.5	28.3	34.8	27.1	viability, T/C (second compound 0.1 µM, first compound 0.01 µM): 106%; viability, T/C (second compound 0.316 µM, first compound 0.01 µM): 112%; viability, T/C (second compound 1 µM, first compound 0.01 µM): 74.6%; viability, T/C (second compound 3.16 µM, first compound 0.01 µM): 130%; viability, T/C [24]: 97.9%; viability, T/C [25]: 27.4%; viability, T/C [26]: 27.5%; viability, T/C [27]: 23.9%; viability, T/C [28]: 19.8%; viability, T/C (second compound 10 µM, first compound 0.01 µM): 56.6%; viability, T/C [30]: 21.1%; viability, T/C [31]: 7.19%; viability, T/C [32]: 3.93%; viability, T/C [33]: 2.81%; viability, T/C [34]: 0.97%
CC1OCC2(CCN(c3cnc(Sc4ccnc(N)c4Cl)c(N)n3)CC2)C1N (centres undefined) + COc1cc2nc(C)nc(NC(C)c3cc(N)cc(C(F)(F)F)c3)c2cc1OC1CCOC1	> 10	6.76	7.2	5.48	0.557	88.2	83.7	74	75.6	100	87.4	89	88	95.9	95.5	89	88	81.7	91.3	89.4	viability, T/C [11]: 58%; viability, T/C [17]: 28.8%; viability, T/C [23]: 34.7%; viability, T/C [24]: 93.9%; viability, T/C [25]: 104%; viability, T/C [26]: 101%; viability, T/C [27]: 98.5%; viability, T/C [28]: 91.6%; viability, T/C [29]: 4.35%; viability, T/C [30]: 76.5%; viability, T/C [31]: 68.7%; viability, T/C [32]: 63.1%; viability, T/C [33]: 37.4%; viability, T/C [34]: 8.46%; viability, T/C [35]: 0.53%
CC(C)NCC(C(=O)N1CCN(c2ncnc3c2C(C)CC3O)CC1)c1ccc(Cl)cc1 (centres undefined) + C=CC(=O)N1CCN(c2nc(=O)n(-c3c(C)ccnc3C(C)C)c3nc(-c4c(O)cccc4F)c(F)cc23)C(C)C1	2.27	1.64	1.47	1.6	0.235	105	139	155	93.6	35.2	104	127	136	73.7	26.6	88.7	121	120	69	16.9	viability, T/C [11]: 10.4%; viability, T/C [17]: 10.6%; viability, T/C [23]: 6.64%; viability, T/C [24]: 97.2%; viability, T/C [25]: 130%; viability, T/C [26]: 110%; viability, T/C [27]: 68.5%; viability, T/C [28]: 23.6%; viability, T/C [29]: 9.85%; viability, T/C [30]: 76.2%; viability, T/C [31]: 150%; viability, T/C [32]: 27.9%; viability, T/C [33]: 14.5%; viability, T/C [34]: 6.65%; viability, T/C [35]: 2.19%
CC(C)NCC(C(=O)N1CCN(c2ncnc3c2C(C)CC3O)CC1)c1ccc(Cl)cc1 (centres undefined)	–	–	–	–	–	–	–	–	–	–	–	–	–	–	–	–	–	–	–	–	viability, T/C (compound 0.316 µM): 113% [middle of 5 runs]; viability, T/C (compound 3.16 µM): 32.6% [middle of 5 runs]; viability, T/C (compound 10 µM): 10% [middle of 5 runs]; IC50 (curve of compound): 2.24 µM [middle of 5 runs]
